Results published in ChEMBL document CHEMBL1201862, “PubChem BioAssay data set” (2004).
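Cultured in 96-well plates, cells were exposed to test compound for 48 hours across five concentrations. GI50 is the concentration that inhibits growth by half.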 Calls of active or inactive are those of the source. Rule as the data show it: active = GI50 up to about 1.1 µM and inactive = higher.

How the values were obtained:
Assay in all cases: DTP human tumour cell line panel, 48 h
[1] = test system: CAKI-1
[2] = test system: SF-295
[3] = test system: COLO 205
[4] = test system: RPMI-8226
[5] = test system: Malme-3M
[6] = test system: HCT-116
[7] = test system: SN12C
[8] = test system: OVCAR-4
[9] = test system: HT-29
[10] = test system: UACC-62
[11] = test system: OVCAR-3
[12] = test system: SF-539
[13] = test system: U-251
[14] = test system: EKVX
[15] = test system: A498
[16] = test system: MOLT-4
[17] = test system: NCI-H460
[18] = test system: LOX IMVI

Measured: GI50

COc1ccc(S(=O)(=O)N/N=C(\C)CN2C(=O)c3ccccc3C2=O)cc1OC
inactive: [1] > 100 µM | [2] > 100 µM | [3] > 100 µM | [4] > 100 µM | [5] > 100 µM | [6] > 100 µM | [7] > 100 µM | [8] > 100 µM | [9] > 100 µM | [10] > 100 µM | [11] > 100 µM | [12] > 100 µM | [13] > 100 µM | [14] > 100 µM | [15] > 100 µM | [16] > 100 µM | [17] > 100 µM

O=S(=O)(N/N=C\c1c2ccccc2[n+]([O-])c2ccccc12)c1ccc(Cl)cc1
inactive: [1] > 100 µM | [2] 66.4 µM | [3] > 100 µM | [4] > 100 µM | [5] 53.1 µM | [6] 45.5 µM | [7] > 100 µM | [8] 33.3 µM | [9] > 100 µM | [10] > 100 µM | [11] > 100 µM | [13] 94.4 µM | [18] > 100 µM | [14] > 100 µM | [15] > 100 µM | [16] 58.6 µM | [17] > 100 µM

CCCCCCc1cc2c(C)c(C)c(=O)oc2cc1OCCCOc1cc2oc(=O)c(C)c(C)c2cc1CCCCCC
inactive: [1] > 100 µM | [2] > 100 µM | [4] > 100 µM | [5] > 100 µM | [6] > 100 µM | [9] > 100 µM | [10] > 100 µM | [11] > 100 µM | [12] > 100 µM | [13] > 100 µM | [18] > 100 µM | [14] > 100 µM | [15] > 100 µM | [16] > 100 µM | [17] > 100 µM

COc1ccccc1NC(=O)C(=O)C1C(=O)Nc2ccccc2[S+]1[O-] (stereo unspecified)
inactive: [1] > 100 µM | [2] > 100 µM | [3] > 100 µM | [5] > 100 µM | [6] > 100 µM | [7] > 100 µM | [8] > 100 µM | [9] > 100 µM | [10] > 100 µM | [11] > 100 µM | [12] > 100 µM | [13] > 100 µM | [18] > 100 µM | [14] > 100 µM | [15] > 100 µM | [16] > 100 µM | [17] > 100 µM

N#CC1CCCCC1NC1(C#N)CCCCC1 (stereo unspecified)
inactive: [1] > 100 µM | [2] > 100 µM | [3] > 100 µM | [4] > 100 µM | [5] > 100 µM | [7] > 100 µM | [9] > 100 µM | [10] > 100 µM | [11] > 100 µM | [12] > 100 µM | [13] > 100 µM | [18] > 100 µM | [14] > 100 µM | [15] > 100 µM | [16] > 100 µM

N/N=C(\c1nc2ccc(Cl)cc2nc1O)C(O)c1ccc(Cl)c(Cl)c1 (stereo unspecified)
inactive: [2] > 100 µM | [3] 88.3 µM | [4] > 100 µM | [5] > 100 µM | [6] 48.1 µM | [7] > 100 µM | [8] 29.1 µM | [9] > 100 µM | [10] > 100 µM | [11] > 100 µM | [12] > 100 µM | [13] > 100 µM | [18] > 100 µM | [14] > 100 µM | [16] > 100 µM | [17] > 100 µM

NC(=O)COc1ccc(Br)cc1Br
inactive: [1] > 100 µM | [2] > 100 µM | [3] > 100 µM | [4] 51.9 µM | [5] > 100 µM | [6] > 100 µM | [7] > 100 µM | [9] > 100 µM | [11] > 100 µM | [12] > 100 µM | [13] > 100 µM | [14] 29.2 µM | [15] > 100 µM | [16] > 100 µM | [17] > 100 µM

Cc1ccc2nc3c(C(=O)NCCN(C)C)cccc3nc2c1
inactive: [2] 5.22 µM | [3] 2.59 µM | [4] 3.6 µM | [5] 2.47 µM | [6] 1.59 µM | [7] 3.42 µM | [8] 4.69 µM | [9] 2.32 µM | [10] 4.35 µM | [11] 5.38 µM | [12] 4.2 µM | [13] 5.55 µM | [18] 1.82 µM | [14] 5.65 µM | [15] 2.47 µM | [16] 1.64 µM

C/C=C1\CN2CCc3c([nH]c4ccccc34)C2CC1C(=O)OC (stereo unspecified)
inactive: [1] > 322 µM | [2] > 322 µM | [3] > 322 µM | [4] > 322 µM | [5] > 322 µM | [6] > 322 µM | [7] > 322 µM | [9] > 322 µM | [10] > 322 µM | [11] > 322 µM | [12] > 322 µM | [13] > 322 µM | [18] > 322 µM | [14] > 322 µM | [16] > 322 µM | [17] > 322 µM

COC(=O)CC[C@@H](NC(=O)C(C)NC(=O)COC1C(O)C(COC(=O)CCCCCCCCCCNC(=O)c2ccc([N+](=O)[O-])c3[nH]c4cc(Br)ccc4c(=O)c23)OC(OCc2ccccc2)C1NC(C)=O)C(N)=O (stereo partly specified)
inactive: [1] > 100 µM | [2] > 100 µM | [3] 96.6 µM | [4] 39.7 µM | [5] > 100 µM | [6] > 100 µM | [7] > 100 µM | [8] > 100 µM | [9] > 100 µM | [10] 65.8 µM | [11] 25.7 µM | [12] > 100 µM | [13] > 100 µM | [18] 44.2 µM | [14] 17.3 µM | [16] 70.3 µM | [17] 57.3 µM

CC#CC1/C(=C\C(=O)OC)CCCC1O (stereo unspecified)
inactive: [1] > 100 µM | [2] > 100 µM | [5] > 100 µM | [6] > 100 µM | [7] > 100 µM | [8] > 100 µM | [9] > 100 µM | [10] > 100 µM | [11] > 100 µM | [12] > 100 µM | [13] > 100 µM | [14] > 100 µM | [15] > 100 µM | [16] > 100 µM | [17] > 100 µM

CSc1ccc2c(cc1=O)[C@@H](NC(=O)c1cc(O)c(O)c(O)c1)CCc1cc(O)c(O)c(O)c1-2
inactive: [2] 23.7 µM | [3] 28 µM | [5] 30 µM | [6] 16 µM | [7] 18.1 µM | [8] 8.93 µM | [9] 24 µM | [10] 19.2 µM | [11] 31 µM | [12] 24.7 µM | [13] 18.6 µM | [14] 23.2 µM | [15] > 100 µM | [16] 18.5 µM | [17] 20 µM
